US20050124562A1, “Bis-quinazoline compounds for the treatment of bacterial infections” (priority 2003, published 2005)
Converted amounts (≈) assume the structure as drawn. Where two headings read alike, the source gives them in different places.

Experiments:
[1] = tested on: reconstituted bacterial DNA polymerase holoenzymes from E. coli, Y. pestis and S. pyogenes; type: biochemical
[2] = tested on: S. aureus, E. faecalis, S. pyogenes and S. pneumoniae; test: Broth microdilution MIC (NCCLS), gram-positive strains; type: cell-based
Summary of the method: (§1)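 MICs by broth microdilution per NCCLS M-7 A-6 against ATCC strains, including ORSA and VRE; MBCs determined for selected organisms. Serum effect assessed by repeating MIC tests with human serum present.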

[3] = tested on: clinically important gram-positive pathogens; test: Whole cell antibacterial (MIC) and bactericidal (MBC) activity; type: cell-based
Method: (§2) Representative bis-quinazolines were tested for antibacterial activity using the […] microdilution method to determine their minimum inhibitory concentrations (MICs). All compounds were tested using standard methods in accordance with NCCLS guidelines (National Committee for Clinical Laboratory Standards. 2003. Methods for dilution antimicrobial susceptibility testing for bacteria that grow aerobically. Approved Standard M-7 A-6, NCCLS, Wayne, Pa.). The bacterial strains used in the susceptibility tests were obtained from the American Type Culture Collection (ATCC) and included resistant phenotypes such as oxacillin-resistant S. aureus (ORSA) and vancomycin-resistant enterococci (VRE). The minimum bactericidal concentrations (MBCs) were determined for selected organisms. The effect of protein binding on the antibacterial activity of representative bis-quinazolines were determined by conducting MIC tests in the presence of human serum.

[4] = tested on: clinically important bacterial pathogens; test: MIC tests in the presence of human serum; type: cell-based; details: 50% human serum
Method: as §2

[5] = Single dose toxicity study in the mouse; type: in vivo; details: single dose IP, 2.5 to 25 mg/kg, female Swiss-Webster mice, monitored one week
Method: A single dose toxicity study was conducted in the mouse prior to evaluating the compound for in vivo efficacy. 2-(6-Methoxy-4-methyl-quinazolin-2-ylamino)-3H-quinazolin-4-ol was prepared in a vehicle consisting of 10% DMSO, 10% ethanol and 80% saline that contained 3% β-cyclodextrin. The compound was administered as a single dose to the peritoneal cavity of female Swiss-Webster mice at the six concentrations (2.5, 5, 10, 15, 20 and 25 mg/kg) proposed for evaluation in the efficacy study. The mice were monitored for toxicity for one week following compound administration.

[6] = tested on: S. aureus ATCC 29213; test: S. aureus murine intra-abdominal sepsis model; type: in vivo, mice; details: 25 mg/kg IP one hour post infection, MLD of S. aureus IP
Method: Typically, the model involves inoculating the intra-peritoneal cavity of the mouse with the minimum lethal dose (MLD) of the test organism. The test antimicrobial agent can be administered by any route (e.g. intravenously, sub-cutaneously, oral, intraperitoneal). Early stage compounds are evaluated following intraperitoneal administration since this is considered to be relevant to systemic treatment since most of the compound will be absorbed into the bloodstream. The compound is then monitored for its ability to protect the mouse from a lethal infection with the test organism in a concentration-dependent manner. At the same time the model provides early data on the potential toxicity of a new compound.
The S. aureus murine intra-abdominal sepsis model was used to evaluate the in vivo efficacy of 2-(6-Methoxy-4-methyl-quinazolin-2-ylamino)-3H-quinazolin-4-ol. […] The animals were then monitored at frequent intervals and the numbers of mice surviving in the different treatment groups was scored and recorded in an attempt to determine the protective dose (PD50). Levofloxacin was evaluated as a positive control (0.875, 1.75, 3.125, 6.25, 12.5 and 25 mg/kg). Vehicle only and saline controls were also evaluated.

[7] = tested on: M. catarrhalis; test: Broth microdilution MIC (NCCLS), M. catarrhalis; type: cell-based; details: Moraxella catarrhalis; some strains of M. catarrhalis; read-out: MIC range
Summary of the method: as §1

[8] = tested on: H. influenzae; test: Broth microdilution MIC (NCCLS), H. influenzae; type: cell-based; details: Haemophilus influenzae; some strains of H. influenzae
Summary of the method: as §1

[9] = tested on: efflux mutants of E. coli; test: Broth microdilution MIC (NCCLS), E. coli efflux mutants; type: cell-based; details: Escherichia coli, read-out: MICs
Summary of the method: as §1

[10] = tested on: efflux mutants of P. aeruginosa; test: Broth microdilution MIC (NCCLS), P. aeruginosa efflux mutants; type: cell-based; details: Pseudomonas aeruginosa, read-out: MICs
Summary of the method: as §1

| Compound | biochemical activity against reconstituted DNA polymerase holoenzymes [1] | MIC [2] | whole cell antibacterial and bactericidal activity [3] | antibacterial activity in the presence of human serum [4] | tolerability after single dose ([5]; listed as 2-(6-Methoxy-4-methyl-quinazolin-2-ylamino)-3H-quinazolin-4-ol) | tolerability after single dose ([5]; listed as 2-(6-Methoxy-4-methyl-quinazolin-2-ylamino)-3H-quinazolin-4-one) | mice protected from lethal S. aureus infection [6] | MIC ([2]; range against some strains of S. aureus, E. faecalis, S. pyogenes and S. pneumoniae, read-out: MIC) | MIC [7] | MIC [8] | MIC [9] | MIC [10] |
| --- | --- | --- | --- | --- | --- | --- | --- | --- | --- | --- | --- | --- |
| COc1ccc2nc(Nc3nc(O)c4ccccc4n3)nc(C)c2c1 [Example 9, 2-(6-Methoxy-4-methyl-quinazolin-2-ylamino)-quinazolin-4-ol] | demonstrated biochemical activity | 0.06 to 16 µg/mL (≈ 0.18 to 48 µM) | potent whole cell antibacterial and bactericidal activity | activity is evident | All mice tolerated the compound | well tolerated | 50% |  |  |  |  |  |
| COc1cc2nc(Nc3nc(O)c4cccc(F)c4n3)nc(C)c2cc1OC.O=C(O)C(F)(F)F [Example 96, 2-(6,7-Dimethoxy-4-methyl-quinazolin-2-ylamino)-8-fluoro-quinazolin-4-ol trifluoroacetate salt] |  |  |  |  |  |  |  | 0.06 to 16 µg/mL | 2 to 64 µg/mL | 16 to 32 µg/mL | 16 to 64 µg/mL | 64 µg/mL |
